From the PolyMetriX glass transition set
± gives the standard deviation of the reports.

`*c1ccc(C(=O)OCCCCCCCCCCOC(=O)c2ccc(-c3nnc(*)s3)cc2)cc1` (repeat unit) showed a glass transition temperature of 79.00 °C.
`*/C(=C/c1cc(OC)c(/C=C(\c2ccccc2)c2ccc(-c3ccc(*)cc3)cc2)cc1OC)c1ccccc1` (repeat unit) gave a glass transition temperature of 223.00 °C.
Work on `*CC(*)c1ccc([Si](C)(C)O[Si](C)(C)O[Si](C)(C)C)cc1` (repeat unit) yielded a glass transition temperature of -27.00 °C.
Work on `*CCCCCCCCCOC(=O)Nc1ccc(Cc2ccc(NC(=O)O*)cc2)cc1` (repeat unit) yielded a glass transition temperature of 72.00 °C.
In the case of `*CC(COC)O*` (repeat unit) [Poly(3-methoxypropylene oxide) ], the glass transition temperature is reported as -62 ± 1.2 °C.
For `*CC(CC(C)C)S(*)(=O)=O` (repeat unit), the glass transition temperature was 23.00 °C.
`*CCCCCCCCN1C(=O)c2ccc(C(c3ccc4c(c3)C(=O)N(*)C4=O)(C(F)(F)F)C(F)(F)F)cc2C1=O` (repeat unit) showed a glass transition temperature of 155.00 °C.
`*c1ccc2c(c1)C(=O)N(c1ccc(Sc3ccc(Oc4ccc(Sc5ccc(N6C(=O)c7ccc(C(*)(C(F)(F)F)C(F)(F)F)cc7C6=O)cc5)cc4)cc3)cc1)C2=O` (repeat unit) showed a glass transition temperature of 242.00 °C.
Molecule `*CC(*)(C)C(=O)OCCOc1ccc(/N=N/c2ccc([N+](=O)[O-])cc2)cc1` (repeat unit) has a glass transition temperature of 112.00 °C.
`*Oc1ccc(Oc2ccc(S(=O)(=O)c3ccc(Oc4ccc(Oc5cccc(*)n5)cc4)cc3)cc2)cc1` (repeat unit) gave a glass transition temperature of 158.00 °C.
In the case of `*C(=O)Nc1ccc(Oc2ccc(C(c3ccc(Oc4ccc(NC(=O)c5ccc6c(c5)C(=O)N(c5ccc(Oc7cccc8c(Oc9ccc(N%10C(=O)c%11ccc(*)cc%11C%10=O)cc9)cccc78)cc5)C6=O)cc4)cc3)(C(F)(F)F)C(F)(F)F)cc2)cc1` (repeat unit), the glass transition temperature is reported as 231.00 °C.
Work on `*c1ccc(-c2cc(CCCCCCBr)c(*)s2)s1` (repeat unit) yielded a glass transition temperature of 51.00 °C.
In the case of `*Oc1ccc(C(C)(C)c2ccc(OC(=O)CCCCCCCCC(*)=O)cc2)cc1` (repeat unit), the glass transition temperature is reported as 14.2 °C.
Work on `*CCN(CCOC(=O)Nc1ccc(C)c(NC(=O)O*)c1)c1ccc(/N=N/c2ccc(B(c3c(C)cc(C)cc3C)c3c(C)cc(C)cc3C)cc2)cc1` (repeat unit) yielded a glass transition temperature of 159.00 °C.
`*Oc1ccc(S(=O)(=O)c2ccc(Oc3ccc(C4(c5ccc(*)cc5)CCCCCC4)cc3)cc2)cc1` (repeat unit) showed a glass transition temperature of 247.00 °C.
Molecule `*Oc1ccc(C2(c3ccc(OC(*)=S)cc3)CCCC2)cc1` (repeat unit) has a glass transition temperature of 79.00 °C.
For `*CCCCCCOC(=O)C(CCCCCCCCCCBr)C(=O)OCCCCCCOc1ccc(-n2on2-c2ccc(O*)cc2)cc1` (repeat unit), the glass transition temperature was 16.00 °C.
Work on `*CCCCNC(=O)c1cccc(C(=O)N*)c1` (repeat unit) yielded a glass transition temperature of 141.00 °C.
Work on `*CC(O)COc1ccc(C(C)(C)c2ccc(OCC(O)COc3cccc(NC(=O)C(=O)Nc4cccc(O*)c4)c3)cc2)cc1` (repeat unit) yielded a glass transition temperature of 119.00 °C.
With `*/C=C/c1ccc2c(c1)C(CC(CC)CCCC)(CC(CC)CCCC)c1cc(*)ccc1-2` (repeat unit) the glass transition temperature was 165.00 °C.
`*Cc1cc(CNC(=O)CCCCC(=O)N*)cc(C(C)(C)C)c1` (repeat unit) gave a glass transition temperature of 109.00 °C.
With `*C(=O)Nc1ccc(Oc2ccc(C(C)(C)c3ccc(Oc4ccc(NC(=O)c5ccc6c(c5)C(=O)N(c5ccc(Oc7ccc8ccc(Oc9ccc(N%10C(=O)c%11ccc(*)cc%11C%10=O)cc9)cc8c7)cc5)C6=O)cc4)cc3)cc2)cc1` (repeat unit) the glass transition temperature was 250.00 °C.
Work on `*OC(=O)c1ccc(C(=O)OC2CC3CC(*)CC(C2)O3)cc1` (repeat unit) yielded a glass transition temperature of 207.00 °C.
In the case of `*CC(*)CCCCCCCCCCCCCCCCCC` (repeat unit), the glass transition temperature is reported as -88.00 °C.
In the case of `*Oc1ccc(C2(c3ccc(OC(*)=O)cc3)c3ccccc3-c3ccccc32)cc1` (repeat unit), the glass transition temperature is reported as 355.00 °C.
`*c1ccc(Oc2ccc(-c3ccc(Oc4ccc(N5C(=O)c6cccc(Oc7ccc(C(c8ccc(Oc9cccc%10c9C(=O)N(*)C%10=O)cc8)(C(F)(F)F)C(F)(F)F)cc7)c6C5=O)cc4)cc3)cc2)cc1` (repeat unit) showed a glass transition temperature of 234.00 °C.
With `*C[Si](*)(C)CCCN(CC)CC` (repeat unit) the glass transition temperature was -31.7 °C.
`*CCCC(C)CNC(=O)c1ccc(C(=O)N*)cc1` (repeat unit) showed a glass transition temperature of 153.00 °C.
Work on `*c1cccc(N2C(=O)c3ccc(C(c4ccc5c(c4)C(=O)N(c4cccc(N6C(=O)c7ccc(-c8ccc9c(c8)C(=O)N(*)C9=O)cc7C6=O)c4)C5=O)(C(F)(F)F)C(F)(F)F)cc3C2=O)c1` (repeat unit) yielded a glass transition temperature of 308.00 °C.
`*c1ccc(Cc2ccc(NC(=O)c3cccc(Oc4ccc5c(c4)C(=O)N(*)C5=O)c3)cc2)cc1` (repeat unit) showed a glass transition temperature of 243.00 °C.
Work on `*CC(C)(C)CS(*)(=O)=O` (repeat unit) yielded a glass transition temperature of 108.50 °C.
`*O[Si](C)(C)O[Si](C)(C)c1c(F)c(F)c(F)c([Si](*)(C)C)c1F` (repeat unit) gave a glass transition temperature of -61.00 °C.
Molecule `*CCCCCCCNC(=O)c1ccc(C(=O)N*)cc1` (repeat unit) has a glass transition temperature of 160.00 °C.
With `*Oc1ccc(Oc2ccc(NC(=O)c3ccc(Oc4ccc(Oc5ccc(C(=O)Nc6ccc(*)cc6)cc5)cc4-c4ccccc4)cc3)cc2)cc1` (repeat unit) the glass transition temperature was 209.00 °C.
Work on `*CCC/C=C(/*)c1ccccc1` (repeat unit) yielded a glass transition temperature of 0.00 °C.
In the case of `*c1ccc2c(c1)C(CCCCCC)(CCCCCC)c1cc(-c3ccc4c(c3)c3cc(*)ccc3n4-c3ccccc3)ccc1-2` (repeat unit), the glass transition temperature is reported as 170.00 °C.
`*Oc1ccc(CC(NC(=O)Cc2ccc(OC(=O)CCCCC(*)=O)cc2)C(=O)OCCCCCC)cc1` (repeat unit) gave a glass transition temperature of 36.00 °C.
Molecule `*CCCCCCCCNC(=O)Cc1ccc(CC(=O)N*)cc1` (repeat unit) has a glass transition temperature of 110.00 °C.
For `*CCCCCCCCCCCN1C(=O)c2ccc(Oc3ccc4c(c3)C(=O)N(*)C4=O)cc2C1=O` (repeat unit), the glass transition temperature was 74.00 °C.
`*CCCCCC(=O)Oc1ccc(OC(=O)CCCCCn2c(=O)c3cc4c(=O)n(*)c(=O)c4cc3c2=O)c(-c2ccccc2)c1` (repeat unit) gave a glass transition temperature of 82.00 °C.
For `*CC(*)(C)C(=O)OCCCCCC(=O)Oc1ccc(OC(=O)c2ccc(OCCC)cc2)cc1` (repeat unit), the glass transition temperature was 45.00 °C.
`*Oc1ccc(C(=O)OCCOCCOCCOC(=O)c2ccc(OC(=O)c3ccc(C(*)=O)cc3)cc2)cc1` (repeat unit) gave a glass transition temperature of 30.00 °C.
Work on `*c1nc(-c2ccccc2)nc(N(CCCCN(*)c2ccccc2)c2ccccc2)n1` (repeat unit) yielded a glass transition temperature of 94.00 °C.
For `*CC(OCC)C1(C)C(=O)OC(=O)C1(*)C` (repeat unit), the glass transition temperature was 244.00 °C.
For `*OC(=O)C(CCSC)NC(=O)CCCCCCCCC(=O)NC(CCSC)C(=O)OC1COC2C(*)COC12` (repeat unit), the glass transition temperature was 61.00 °C.
Molecule `*Oc1ccc(S(=O)(=O)c2ccc(Oc3ccc(S(=O)(=O)c4ccc(-c5ccc(S(=O)(=O)c6ccc(*)cc6)cc5)cc4)cc3)cc2)cc1` (repeat unit) has a glass transition temperature of 267.00 °C.
`*c1ccc(-n2c(=O)c3cc4c(=O)n(*)c(=O)c4cc3c2=O)cc1` (repeat unit) showed a glass transition temperature of 417.00 °C.
`*CC(*)(CC(=O)OCCCCCCCC)C(=O)OCCCCCCCC` (repeat unit) gave a glass transition temperature of -19.00 °C.
Work on `*Nc1cc(NC(=O)c2cc(OCCN(C)c3ccc(C#N)cc3)cc(C(*)=O)c2)cc(C(=O)OCCN(C)c2ccc(C#N)cc2)c1` (repeat unit) yielded a glass transition temperature of 167.00 °C.
In the case of `*Oc1ccc(OC(=O)Oc2ccc(C(C)(C)c3ccc(OC(*)=O)cc3)cc2)cc1` (repeat unit), the glass transition temperature is reported as 97.00 °C.
Molecule `*CC(*)C(=O)OCCCCCCOC(=O)c1ccc(OC(=O)c2ccc(C#N)cc2)cc1` (repeat unit) has a glass transition temperature of 30.00 °C.
Work on `*CC(*)(C)C(=O)OCCN(CC)c1ccc(/N=N/c2ccc(S(C)(=O)=O)cc2)cc1` (repeat unit) yielded a glass transition temperature of 144.00 °C.
For `*Nc1ccc(NC(=O)c2ccc(NC(=O)CCCCCCCCC(=O)Nc3ccc(C(*)=O)cc3)cc2)cc1C(=O)OCCCCCCCCCCCCCC` (repeat unit), the glass transition temperature was 225.00 °C.
Work on `*Oc1ccc(CC(NC(=O)CCc2ccc(OC(=O)CCCCCCCCC(*)=O)cc2)C(=O)OCCOCCOCC)cc1` (repeat unit) yielded a glass transition temperature of 2.00 °C.
With `*c1ccc2c(c1)C(=O)N(c1cccc(C(=O)Nc3ccc(-c4ccc(NC(=O)c5cccc(N6C(=O)c7ccc(C(*)(C(F)(F)F)C(F)(F)F)cc7C6=O)c5)cc4)cc3)c1)C2=O` (repeat unit) the glass transition temperature was 324.00 °C.
In the case of `*c1ccc(Oc2ccc(Oc3ccc(N4C(=O)CC(=O)N(*)C4=S)cc3)cc2)cc1` (repeat unit), the glass transition temperature is reported as 157.00 °C.
`*c1cccc(-n2c(=O)c3cc4c(=O)n(*)c(=O)c4cc3c2=O)c1` (repeat unit) gave a glass transition temperature of 430.00 °C.
`*CCCCCCOc1ccc(C(C)(C)c2ccc(O*)cc2)cc1` (repeat unit) showed a glass transition temperature of 36.00 °C.
`*CNC(=O)OC(c1ccco1)C(OC(=O)NCc1ccc(C(C)(C)c2ccc(*)o2)o1)c1ccco1` (repeat unit) gave a glass transition temperature of 45.00 °C.
Work on `*Oc1cccc(C(*)=O)c1` (repeat unit) yielded a glass transition temperature of 162.00 °C.
With `*c1ccc2c(c1)C(=O)N(c1ccc(Oc3ccc(N4C(=O)c5ccc(C(*)O[Si](C)(C)O[Si](C)(C)O[Si](C)(C)C)cc5C4=O)cc3)cc1)C2=O` (repeat unit) the glass transition temperature was 167.00 °C.
With `*CCOCCOC(=O)c1ccccc1C(=O)O*` (repeat unit) the glass transition temperature was -50.00 °C.
`*CC(*)(CC(=O)OCCCCC)C(=O)OCCCCC` (repeat unit) showed a glass transition temperature of 2.00 °C.
`*Nc1ccc(C(c2ccc(NC(=O)c3ccc(C(*)=O)cc3)cc2)(C(F)(F)F)C(F)(F)F)cc1` (repeat unit) gave a glass transition temperature of 290.00 °C.
In the case of `*Oc1ccc(OC(=O)c2cccc(C(*)=O)c2)cc1` (repeat unit), the glass transition temperature is reported as 186.00 °C.
Work on `*CCOCCOCCOCCOC(=O)NCCCCCCNC(=O)O*` (repeat unit) yielded a glass transition temperature of -17.00 °C.
For `*OC1CCC(OC(=O)OCCCCOC(*)=O)CC1` (repeat unit), the glass transition temperature was 30.00 °C.
With `*/C=C/C1C/C(=C\C)C(*)C1` (repeat unit) the glass transition temperature was 121.00 °C.
